Among the test systems are DMS 273 small cell lung; XF 498 CNS; DMS 114 small cell lung; M19-MEL melanoma; DLD-1 colon; KM20L2 colon; SNB-78 CNS; RXF-631 renal; HOP-18 NSCLC.
Holding throughout (assay): DTP human tumour cell line panel, 48 h

SMILES strings stand for the structures.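 Dose response: 5 concentrations. Exposure: 48 h. Format: 96-well plates. Endpoint: linear interpolation; highest concentration if not reached. TGI: concentration producing complete growth inhibition.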

Regarding `Oc1ccc(C2Oc3cc(O)cc4c3C2c2cc(O)cc3c2C(c2cc(O)cc5c2C4C(c2ccc(O)cc2)O5)C(c2ccc(O)cc2)O3)cc1` (stereo unspecified), the TGI in the assay on DMS 273 small cell lung was > 25 µM; in the assay with XF 498 CNS it was 24.5 µM; in the assay on DMS 114 small cell lung, > 25 µM; with M19-MEL melanoma, > 25 µM; with DLD-1 colon, > 25 µM; with KM20L2 colon, > 25 µM.

For the compound `CCc1ccc(Cc2ccc(CC)c(NC(=O)C(=O)C3NC(=S)NC3=O)c2CC)c(CC)c1NC(=O)C(=O)C1NC(=S)NC1=O` (stereo unspecified), the TGI with DMS 273 small cell lung, in the assay on SNB-78 CNS, with RXF-631 renal, in the assay on M19-MEL melanoma, with DLD-1 colon and in the assay with KM20L2 colon was > 100 µM throughout.

In the case of `Cn1ccc(=NS(=O)(=O)c2ccccc2)cc1`, the TGI in the assay on DMS 273 small cell lung, in the assay on SNB-78 CNS, with HOP-18 NSCLC, with XF 498 CNS, with DMS 114 small cell lung and with RXF-631 renal was > 100 µM throughout. The TGI in the assay with M19-MEL melanoma, in the assay with DLD-1 colon and in the assay on KM20L2 colon was > 100 µM in each case.

`CC(C)(CCl)NC(=O)c1cccc(C(=O)NC(C)(C)CCl)n1`: the concentration for total growth inhibition (TGI) in the assay with DMS 273 small cell lung, in the assay on SNB-78 CNS, with DMS 114 small cell lung, in the assay on RXF-631 renal, with M19-MEL melanoma and in the assay on DLD-1 colon was > 100 µM each time. In addition, in the assay on KM20L2 colon, the TGI is > 100 µM.

`C=CCCCN1CCCCC1=S`: the TGI in the assay with DMS 273 small cell lung, in the assay with HOP-18 NSCLC, in the assay with XF 498 CNS, with DMS 114 small cell lung, in the assay on RXF-631 renal and with M19-MEL melanoma was > 100 µM in each case. Moreover, the TGI with DLD-1 colon and in the assay with KM20L2 colon was > 100 µM throughout.

For the compound `N#Cc1ccc(OCCSCCCCCCCCCCSCCOc2ccc(C#N)cc2)cc1`, the TGI in the assay on SNB-78 CNS, with HOP-18 NSCLC, in the assay on DMS 114 small cell lung, in the assay on M19-MEL melanoma and with KM20L2 colon was > 100 µM throughout.

For the compound `CC(C)c1cccc(C(C)C)c1NC(=O)C(=O)C1CCC2=C(Sc3ccccc3N2)C1=O` (stereo unspecified), the TGI with DMS 273 small cell lung, with SNB-78 CNS, in the assay on HOP-18 NSCLC, with DMS 114 small cell lung, in the assay on RXF-631 renal and in the assay on M19-MEL melanoma was > 100 µM in each case. In addition, the total growth inhibition concentration (TGI) in the assay with DLD-1 colon and with KM20L2 colon was > 100 µM each time.

With `CN/N=C(\C)C(CN1CCCCC1)C(C1=C(O)c2ccccc2OC1)c1ccccc1` (stereo unspecified), the TGI in the assay on DMS 273 small cell lung, in the assay with SNB-78 CNS, in the assay with XF 498 CNS, in the assay with DMS 114 small cell lung, in the assay on RXF-631 renal and in the assay on M19-MEL melanoma was > 100 µM throughout. Moreover, in the assay with KM20L2 colon, the TGI was > 100 µM.

In the case of `CC(C)(C)OC(=O)N1CC(C)(C)N2C(=O)C3(CCCO3)C12` (stereo unspecified), the TGI in the assay on DMS 273 small cell lung, with SNB-78 CNS, in the assay on HOP-18 NSCLC, in the assay on DMS 114 small cell lung, in the assay with M19-MEL melanoma and in the assay on DLD-1 colon was > 100 µM throughout. Besides, the TGI with KM20L2 colon is > 100 µM.

On to `C#CC(C)(C)OCCCCOc1cc(O)c2c(=O)c3ccccc3n(C)c2c1`, for which the TGI with DMS 273 small cell lung, in the assay on SNB-78 CNS, with HOP-18 NSCLC, with XF 498 CNS, in the assay with DMS 114 small cell lung and in the assay on M19-MEL melanoma was > 100 µM each time. For the same compound, the TGI with DLD-1 colon and in the assay with KM20L2 colon was > 100 µM throughout.

For the compound `O=C(O[C@H]1[C@@H]2C=CO[C@@H](OC3OC(CO)C(O)C(O)C3O)[C@@H]2[C@@]2(CO)O[C@@H]12)c1ccc(O)c(O)c1` (stereo partly specified), the TGI with DMS 273 small cell lung, in the assay on SNB-78 CNS, in the assay with XF 498 CNS, with M19-MEL melanoma, in the assay on DLD-1 colon and with KM20L2 colon was > 100 µM each time.

As for `O=c1[nH]nc(CNc2ccc(Cl)cc2Cl)c2ccccc12`, the TGI is 72.9 µM in the assay with DMS 273 small cell lung; > 100 µM in the assay with SNB-78 CNS; 54.4 µM in the assay with HOP-18 NSCLC; 37.1 µM in the assay with DMS 114 small cell lung; > 100 µM with RXF-631 renal; > 100 µM in the assay on M19-MEL melanoma. The TGI in the assay with DLD-1 colon came out at 90.6 µM; in the assay with KM20L2 colon it was 75.2 µM.

`CSc1nc(NC2OCC(OC(C)=O)C(OC(C)=O)C2OC(C)=O)c2c(n1)OCC2=O` (stereo unspecified): the TGI in the assay with DMS 273 small cell lung, in the assay on SNB-78 CNS, with DMS 114 small cell lung, in the assay with M19-MEL melanoma, in the assay with DLD-1 colon and in the assay with KM20L2 colon was > 100 µM in each case.

Regarding `CN1N=C2c3ccccc3OC(c3ccccc3)[C@H]2C1c1ccccc1` (stereo partly specified), the TGI in the assay on DMS 273 small cell lung, in the assay on SNB-78 CNS, in the assay on HOP-18 NSCLC, in the assay on XF 498 CNS, in the assay on DMS 114 small cell lung and with M19-MEL melanoma was > 100 µM throughout. Besides, the TGI in the assay on DLD-1 colon and in the assay with KM20L2 colon was > 100 µM in each case.

On to `O=C1NC(=S)NC(=O)C1=CC1CC1`, for which the TGI in the assay on DMS 273 small cell lung, in the assay on SNB-78 CNS, in the assay on HOP-18 NSCLC, in the assay on XF 498 CNS, with DMS 114 small cell lung and in the assay with M19-MEL melanoma was > 100 µM in each case. Further, the concentration for total growth inhibition (TGI) with DLD-1 colon and in the assay with KM20L2 colon was > 100 µM throughout.

For the compound `CCCCCCCC(=O)OC[C@H](C[As](=O)(O)O)OC(=O)CCCCCCC`, the TGI with DMS 273 small cell lung stood at 24 µM; with SNB-78 CNS, 44.3 µM; with HOP-18 NSCLC, 49.2 µM; in the assay with DMS 114 small cell lung it was 19.5 µM; in the assay with M19-MEL melanoma, 27.2 µM; with DLD-1 colon it was 28 µM. Further, in the assay with KM20L2 colon, the TGI is 30.2 µM.

Take `Nc1ccn(CCOC(c2ccccc2)P(=O)(O)O)c(=O)n1` (stereo unspecified): the TGI in the assay on DMS 273 small cell lung, in the assay with SNB-78 CNS, in the assay with XF 498 CNS, in the assay on DMS 114 small cell lung, with M19-MEL melanoma and in the assay with DLD-1 colon was > 100 µM in each case. The TGI in the assay with KM20L2 colon was > 100 µM.

A word on the TGI: it is the concentration at which net growth stops. A low value points to greater sensitivity of the cells.

These data come from PubChem BioAssay (NCI).
